# Reference: US11980616B2, “Treating liver disease by selectively eliminating senescent cells” (Buck Institute for Research on Aging, priority 2014, dated 2024)
# Key:
# [1] = system: senescent foreskin fibroblasts (Sen(IR)HCA2); test: Cell count survival assay, irradiation-induced senescent HCA2; type: cell-based; details: 0, 2.5, 10 μM for 9 days
# Method: (§1) Foreskin fibroblast cell lines HCA2 and BJ, lung fibroblast cell line IMR90, and mouse embryonic fibroblasts were seeded in six-well plates and induced to senesce with 10 Gy of ionizing radiation (IR) or a 24 hr treatment with doxorubicin (Doxo). Senescent phenotype was allowed to develop for at least 7 days, at which point a cell count was made to determine the baseline number of cells. Nutlin-3a treatment was then initiated for a period of at least 9 days. Media alone or media with drug as appropriate was refreshed at least every three days. At the end of the assay time period, cells are counted. Each condition was seeded in three plate wells and counted independently. Initial cell count serves as a control to determine the induction of senescence, as compared to the last day count without nutlin treatment. Initial non-senescent cell count serves as a proxy to determine Nutlin-3a toxicity.
# Foreskin fibroblast cell lines HCA2 and BJ, lung fibroblast cell line IMR90, and mouse embryonic fibroblasts were exposed to 10 Gy of ionizing radiation (IR) to induce senescence. […] Percent survival was calculated as [cell count on day 9 of Nutlin-3a treatment/initial cell count on first day of Nutlin-3a treatment].
# [2] = system: doxorubicin-treated (Doxo) senescent foreskin fibroblasts (HCA2); test: Cell count survival assay, doxorubicin-induced senescent HCA2; type: cell-based; details: Sen(Doxo) HCA2; 9 days
# Method: as §1
# (§2) Foreskin fibroblasts (HCA2) and aortic endothelial cells (Endo Aort) were treated with doxorubicin (250 nM) for one day (24 hours) to induce senescence (see FIG. 1). Eight days following doxorubicin treatment, Nutlin-3a treatment was initiated. HCA2 cells were exposed to Nutlin-3a for 9 days, and aortic endothelial cells were exposed to Nutlin-3a for 11 days. […] Percent survival was calculated as [cell count on the last day of Nutlin-3a treatment/initial cell count on first day of Nutlin-3a treatment].
# [3] = system: doxorubicin-treated (Doxo) senescent aortic endothelial cells (Endo Aort); test: Cell count survival assay, doxorubicin-induced senescent aortic endothelial cells; type: cell-based; details: Sen(Doxo) aortic endothelial cells; 11 days
# Method: as §1, §2
# [4] = system: non-senescent aortic endothelial (Non Sen Endo Aort) cells; test: Cell count toxicity assay, non-senescent aortic endothelial cells; type: cell-based; details: 0, 2.5, 10 μM, 11 days
# Method: Non-senescent aortic endothelial (Endo Aort) cells and pre-adipocytes (Pread) were also treated with varying concentrations (0, 2.5 μM, and 10 μM) of Nutlin-3a for a period of 11 days to assess Nutlin-3a toxicity, as described above. Cell counts were taken at the start at Day 0 (NS start) and at the end of Nutlin-3a treatment (NS 0). The difference between counts of cells not treated with Nutlin-3a on day 11 (NS 0) and cell counts from NS start reflects the cell growth over the indicated time period. […] Decrease in apparent survival between NS 0 and NS 2.5 and between NS 0 and NS 10 reflects a decrease in cell growth.
# [5] = system: DNA damage response proteins in senescent IMR90 cells; test: Immunoblot of DNA damage response proteins in irradiated senescent IMR90 cells; type: cell-based, human
# Method: Primary human fibroblast (IMR90) cells were induced to senesce by applying 10 Gy of irradiation. Seven days after irradiation (Day 0), cells were treated with 10 μM Nutlin-3a or vehicle (DMSO) for nine days (Day 9). The drug or vehicle was refreshed every three days. Drug/vehicle was removed at Day 9 and the cells were cultured for an additional six days in media without drug or DMSO, changing media every three days. Cells were collected at Day 0 (non-senescent cells), Day 9, Day 12, and Day 15, and protein extracted and processed for immunoblotting (Western blotting). Two samples were processed at each time point; the results are provided for one sample in FIG. 14.
# LDLR-/- mice fed a HFD = test: Atherosclerosis model, LDLR-/- mice fed a high fat diet; type: in vivo, mouse
# Description: Schematics of two atherosclerosis mouse models are presented in FIGS. 43A-B. The study illustrated in FIG. 43A assessed the extent to which clearance of senescent cells from plaques in LDLR^−/− mice with Nutlin-3A reduces plaque load. Two groups of LDLR^−/− mice (10 weeks) are fed a high fat diet (HFD) (Harlan Teklad TD.88137) having 42% calories from fat, beginning at Week 0 and throughout the study. Two groups of LDLR^−/− mice (10 weeks) are fed normal chow (−HFD). From weeks 0-2, one group of HFD mice and −HFD mice are treated with Nutlin-3A (25 mg/kg, intraperitoneally). One treatment cycle is 14 days treatment, 14 days off. Vehicle is administered to one group of HFD mice and one group of −HFD mice. At week 4 (timepoint 1), one group of mice are sacrificed and to assess presence of senescent cells in the plaques. For the some of the remaining mice, Nutlin-3A and vehicle administration is repeated from weeks 4-6. At week 8 (timepoint 2), the mice are sacrificed and to assess presence of senescent cells in the plaques. The remaining mice are treated with Nutlin-3A or vehicle from weeks 8-10. At week 12 (timepoint 3), the mice are sacrificed and to assess the level of plaque and the number of senescent cells in the plaques.
# Plasma lipid levels were measured in LDLR^−/− mice fed a HFD and treated with Nutlin-3A or vehicle at timepoint 1 as compared with mice fed a −HFD (n=3 per group). Plasma was collected mid-afternoon and analyzed for circulating lipids and lipoproteins.
# At the end of timepoint 1, LDLR^−/− mice fed a HFD and treated with Nutlin-3A or vehicle were sacrificed (n=3, all groups), and the aortic arches were dissected for RT-PCR analysis of SASP factors and senescent cell markers. Values were normalized to GAPDH and expressed as fold-change versus age-matched, vehicle-treated LDLR^−/− mice on a normal diet.
# At the end of timepoint 2, LDLR^−/− mice fed a HFD and treated with Nutlin-3A or vehicle (n=3 for all groups) were sacrificed, and aortic arches were dissected for RT-PCR analysis of SASP factors and senescent cell markers. Values were normalized to GAPDH and expressed as fold-change versus age-matched, vehicle-treated LDLR^−/− mice on a normal diet.
# At the end of timepoint 3, LDLR^−/− mice fed a HFD and treated with Nutlin-3A or vehicle (n=3 for all groups) were sacrificed, and aortas were dissected and stained with Sudan IV to detect the presence of lipid. Body composition of the mice was analyzed by MRI, and circulating blood cells were counted by Hemavet. […] As shown in FIGS. 48A-B, the platelet and lymphocyte counts were equivalent between the Nutlin-3A and vehicle treated mice.
# [6] = 10 μM, decreased when the drug was removed
smiles,measurement,setting,value
COc1ccc(C2=N[C@@H](c3ccc(Cl)cc3)[C@@H](c3ccc(Cl)cc3)N2C(=O)N2CCNC(=O)C2)c(OC(C)C)c1 [Nutlin-3a],Percent survival,[1],reduced cell survival
same,Percent survival,[2],sensitive
same,Percent survival,[3],sensitive
same,Proliferation (percent growth),[4],reduces proliferation
same,Toxicity (cell number vs starting level),[4],non-toxic
same,Phosphorylation of H2AX (γH2AX),"[5]; 10 μM, after treatment and after drug removal",declining levels of phosphorylation
same,Phosphorylation of the kinase ATM (pATM S1981),"[5]; 10 μM, also after drug removal",lower
same,Level of MDM2,[5]; [6],elevated
same,Level of p21,[5]; [6],elevated
same,Level of p53,[5]; [6],elevated
same,Level of IkBa,[5]; after drug is removed,approaches the level of IkBa in non-senescent cells
same,Expression of SASP factors and senescent cell markers in aortic arch (RT-PCR),"LDLR-/- mice fed a HFD; 25 mg/kg i.p., after 1 treatment cycle, MMP3, MMP13, PAI1, p21, IGFBP2, IL-1A, IL-1B",reduced expression of several SASP factors and senescent cell markers
same,Expression of SASP factors and senescent cell markers in aortic arch (RT-PCR),"LDLR-/- mice fed a HFD; 25 mg/kg i.p., multiple (two) treatment cycles",reduced expression of most markers
same,Reduction of plaques in the descending aorta (Sudan IV),"LDLR-/- mice fed a HFD; 25 mg/kg i.p., three treatment cycles, week 12",~45%
same,Lymphocyte count vs vehicle,LDLR-/- mice fed a HFD; three treatment cycles,equivalent
same,Platelet count vs vehicle,LDLR-/- mice fed a HFD; three treatment cycles,equivalent
